Measured values from patent publication US11345666B2, “Phenyl and pyridinyl substituted imidazoles as modulators of RORγT” (Janssen Pharmaceutica NV, priority 2018, dated 2022).

What was measured:
[1] = molecular target: human RORγt ligand binding domain (RORγt LBD) (Homo sapiens (Human), UniProt P51449); experiment: RORγt ThermoFluor assay
Excerpt: ThermoFluor® is a fluorescence based assay that estimates ligand binding affinities by measuring the effect of a ligand on protein thermal stability (Pantoliano, M. W., Petrella, E. C., Kwasnoski, J. D., Lobanov, V. S., Myslik, J., Graf, E., Carver, T., Asel, E., Springer, B. A., Lane, P., and Salemme, F. R. (2001) High-density miniaturized thermal shift assays as a general strategy for drug discovery. J Biomol Screen 6, 429-40, and Matulis, D., Kranz, J. K., Salemme, F. R., and Todd, M. J. (2005) Thermodynamic stability of carbonic anhydrase: measurements of binding affinity and stoichiometry using ThermoFluor. Biochemistry 44, 5258-66). This approach is applicable to a wide variety of systems, and rigorous in theoretical interpretation through quantitation of equilibrium binding constants (KD).
The shift in the melting point described as a ΔTm is proportional to the concentration and affinity of the ligand.
RORγt ThermoFluor® Assay Construct
Nucleotides 850-1635 (SEQ ID NO:2) coding for the wild type human RORγt ligand binding domain (RORγt LBD) were cloned into the pHIS 1 vector, a modified pET E. coli expression vector (Accelagen, San Diego), containing an in-frame N-terminal His-tag and a TurboTEV protease cleavage site (ENLYFQG, SEQ ID NO:3) upstream of the cloned insert sequence. The amino acid sequence for the RORγt construct used in the Thermofluor® assay is shown as SEQ ID NO:4.
ThermoFluor® experiments were carried out using instruments owned by Janssen Research and Development, L.L.C. through its acquisition of 3-Dimensional Pharmaceuticals, Inc. 1,8-ANS (Invitrogen) was used as a fluorescent dye. Protein and compound solutions are dispensed into black 384-well polypropylene PCR microplates (Abgene) and overlayed with silicone oil (1 μL, Fluka, type DC 200) to prevent evaporation.
Bar-coded assay plates are robotically loaded onto a thermostatically controlled PCR-type thermal block and then heated at a typical ramp-rate of 1° C./min for all experiments. Fluorescence was measured by continuous illumination with UV light (Hamamatsu LC6) supplied via fiber optic and filtered through a band-pass filter (380-400 nm; >6 OD cutoff). Fluorescence emission of the entire 384-well plate was detected by measuring light intensity using a CCD camera (Sensys, Roper Scientific) filtered to detect 500±25 nm, resulting in simultaneous and independent readings of all 384 wells. Images were collected at each temperature, and the sum of the pixel intensity in a given area of the assay plate was recorded versus temperature. Reference wells contained RORγt without compounds, and the assay conditions were as follows: • 0.065 mg/mL RORγt • 60 μM 1,8-ANS • 100 mM Hepes, pH 7.0 • 10 mM NaCl • 2.5 mM GSH • 0.002% Tween-20
Project compounds were arranged in a pre-dosed mother plate (Greiner Bio-one) wherein compounds are serially diluted in 100% DMSO by 1:2 from a high concentration of 10 mM over 12 columns within a series (column 12 is a reference well containing DMSO, no compound). The compounds were robotically dispensed directly into assay plates (1×=46 nL) using a Hummingbird capillary liquid handling instrument (Digilab). Following compound dispense, protein and dye in buffer was added to achieve the final assay volume of 3 μL, followed by 1 μL of silicone oil.
The binding affinity was estimated as described previously (Matulis, D., Kranz, J. K., Salemme, F. R., and Todd, M. J. (2005) Thermodynamic stability of carbonic anhydrase: measurements of binding affinity and stoichiometry using ThermoFluor®. Biochemistry 44, 5258-66) using the following thermodynamic parameters of protein unfolding: […]

[2] = molecular target: full-length human RORγt (Homo sapiens (Human), UniProt P51449); experiment: RORγt (full-length human) reporter assay, conditions A or B; type: cell-based; settings: for IC50: HEK293T cells, read-out: RORγt (FL) Reporter Assay A or B, IC50; for inhibition at 6 µM: read-out: RORγt (FL) Reporter Assay A or B, % inhibition @ 6 μM, 6 μM compound concentration; for inhibition at 2 µM: 2 μM compound concentration (**)
Excerpt: RORγt (Full-Length Human) Reporter Assay:
Cells used in this assay were transiently co-transfected with three different plasmids, one expressing the GAL4-DNA binding domain (DBD)-RORγt fusion protein under control of a CMV promoter (NH2-Gal4-DBD:RORC—COOH in pCMV-BD, Stratagene #211342), and two reporter plasmids—the firefly luciferase reporter under control of a GAL4 promoter (pFR-Luc 2×GAL4) and Renilla luciferase reporter under control of CMV promoter (pRL-CMV, Promega #E2261). […] HEK293T cells were plated at 35,000 per well in 96-well plate in medium of DMEM with 10% FBS. After 18-22 hours incubation, the transfection was carried out by using a PEI solution with 170.5 ng total DNA/well (50 ng pCMV-BD-ROR plus 20 ng of pFR-Luc reporter and 0.5 ng of pRL-CMV reporter plus 100 ng Carrier DNA (Clontech #630440) for each well). 4-6 hours after transfection, cells were treated with compounds for overnight in the medium with final concentration of FBS 1.3% and DMSO 0.1%. After overnight (16 to 20 hours) incubation, media were removed and cells were lysed with […] Glo Lysis Buffer (Promega) for 10-15 minutes followed by 10 minute incubation with 50 μL Dual Glo reagent (Promega) at room temperature. Firefly luciferase luminescence was measured using a BMG Pherastar plate reader. To each well, 50 μL Stop and Glo reagent was added and incubated for 10 minutes at room temperature. Renilla luminescence was measured using a BMG Pherastar plate reader. To calculate the effect of compounds on RORγt activity, firefly values were normalized against values of DMSO only and values of reference compound at saturating concentration, then further normalized against Renilla signals. IC50s were generated by plotting final Renilla normalized data against compound concentration and percent inhibition was calculated against DMSO control.
Cells used in this assay were transiently co-transfected with three different plasmids, one expressing the GAL4-DNA binding domain (DBD)-RORγt fusion protein under control of a CMV promoter (NH2-Gal4-DBD:RORC—COOH in pCMV-BD, Stratagene #211342), and two reporter plasmids—the firefly luciferase reporter under control of a GAL4 promoter (pFR-Luc 2×GAL4) and Renilla luciferase reporter under control of CMV promoter (pRL-CMV, Promega #E2261). […] HEK293T cells were plated at 8750 cells per well in 384-well plate in medium of DMEM with 10% FBS. After 18-22 hours incubation, the transfection was carried out by using a PEI solution with 42.6 ng total DNA/well (12.5 ng pCMV-BD-ROR plus 5 ng of pFR-Luc reporter and 0.125 ng of pRL-CMV reporter plus 25 ng Carrier DNA (Clontech #630440) for each well). 4-6 hours after transfection, cells were treated with compounds for overnight in the medium with final concentration of FBS 1.3% and DMSO 0.1%. After overnight (16 to 20 hours) incubation, media were removed and cells were lysed with 20 μL Glo Lysis Buffer (Promega) for 10-15 minutes followed by 10 minute incubation with 20 μL Dual Glo reagent (Promega) at room temperature. Firefly luciferase luminescence was measured using a BMG Pherastar plate reader. To each well, 20 μL Stop and Glo reagent was added and incubated for 10 minutes at room temperature. Renilla luminescence was measured using a BMG Pherastar plate reader. To calculate the effect of compounds on RORγt activity, firefly values were normalized against values of DMSO only and values of reference compound at saturating concentration, then further normalized against Renilla signals. IC50s were generated by plotting final Renilla normalized data against compound concentration and percent inhibition was calculated against DMSO control.

[3] = read-out: RORγt (FL) Reporter Assay A or B, % inhibition

Sequence of human RORγt ligand binding domain (RORγt LBD) (P51449 other isoform, or with tags, fused parts or gaps): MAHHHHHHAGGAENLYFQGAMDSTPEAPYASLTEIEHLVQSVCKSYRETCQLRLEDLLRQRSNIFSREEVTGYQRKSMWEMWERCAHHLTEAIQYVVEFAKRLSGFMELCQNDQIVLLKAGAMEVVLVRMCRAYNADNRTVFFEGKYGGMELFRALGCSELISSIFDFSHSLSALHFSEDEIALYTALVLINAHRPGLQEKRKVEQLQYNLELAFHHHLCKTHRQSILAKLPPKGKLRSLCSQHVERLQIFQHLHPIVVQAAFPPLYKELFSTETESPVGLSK
Sequence of full-length human RORγt (P51449 other isoform, or with tags, fused parts or gaps): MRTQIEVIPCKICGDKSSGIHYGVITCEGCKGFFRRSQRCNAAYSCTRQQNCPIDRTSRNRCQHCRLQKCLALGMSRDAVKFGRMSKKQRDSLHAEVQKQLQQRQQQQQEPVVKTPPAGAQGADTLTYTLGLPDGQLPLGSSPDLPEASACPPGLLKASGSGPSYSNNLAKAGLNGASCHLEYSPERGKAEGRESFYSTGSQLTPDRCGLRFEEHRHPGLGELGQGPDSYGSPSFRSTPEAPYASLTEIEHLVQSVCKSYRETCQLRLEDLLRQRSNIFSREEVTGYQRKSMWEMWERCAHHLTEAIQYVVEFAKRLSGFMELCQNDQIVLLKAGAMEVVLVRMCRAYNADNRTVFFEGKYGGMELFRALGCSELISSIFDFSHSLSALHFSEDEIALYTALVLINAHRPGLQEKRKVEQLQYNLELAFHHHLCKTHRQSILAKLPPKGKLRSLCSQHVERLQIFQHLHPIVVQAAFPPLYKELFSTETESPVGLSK

| SMILES | Kd [1] [nM] | inhibition at 3 µM ([2]; 3 μM compound concentration (*), read-out: RORγt (FL) Reporter Assay A or B, % inhibition) [%] | IC50 [2] [nM] | inhibition at 6 µM [2] [%] | inhibition at 2 µM [2, 3] [%] |
| --- | --- | --- | --- | --- | --- |
| CCc1nc(C(=O)NC[C@@]2(O)CC[C@H](S(C)(=O)=O)C[C@@H]2O)c(Cl)n1-c1ncc(CC(C)(C)C(F)(F)F)cc1OC(F)F (stereo in doubt) [Example 61, 5-Chloro-1-(3-(difluoromethoxy)-5-(3,3,3-trifluoro-2,2-dimethylpropyl)pyridin-2-yl)-N-(((1S*,2S*,4S*)-1,2-dihydroxy-4-(methylsulfonyl)cyclohexyl)methyl)-2-ethyl-1H-imidazole-4-carboxamide] | 46 | 90 | 110 |  |  |
| CCc1nc(C(=O)NC[C@H]2CC[C@H](S(C)(=O)=O)CC2)c(C)n1-c1ncc(CCCC(F)(F)F)cc1OC(F)F [Example 51, 1-(3-(Difluoromethoxy)-5-(4,4,4-trifluorobutyl)pyridin-2-yl)-2-ethyl-5-methyl-N-(((1r,4r)-4-(methylsulfonyl)cyclohexyl)methyl)-1H-imidazole-4-carboxamide] | 120 |  | 140 | 84 |  |
| CCc1nc(C(=O)NC[C@H]2CC[C@H](S(C)(=O)=O)CC2)c(F)n1-c1ccc(CCC(F)(F)F)cc1OC [Example 13, 2-Ethyl-5-fluoro-1-(2-methoxy-4-(3,3,3-trifluoropropyl)phenyl)-N-(((1r,4r)-4-(methylsulfonyl)cyclohexyl)methyl)-1H-imidazole-4-carboxamide] | 25 |  | 140 | 95 |  |
| CCc1nc(C(=O)NC[C@]2(O)CC[C@@H](S(C)(=O)=O)CC2)cn1-c1c(F)cc(CC(C)C)cc1F [Example 81, 1-(2,6-Difluoro-4-isobutylphenyl)-2-ethyl-N-(((1s,4s)-1-hydroxy-4-(methylsulfonyl)cyclohexyl)methyl)-1H-imidazole-4-carboxamide] | 260 |  | 1200 | 27 |  |
| CCc1nc(C(=O)NC[C@H]2CC[C@H](S(C)(=O)=O)CC2)cn1-c1cnc(CCC(F)(F)F)cc1OC [Example 116, 2-Ethyl-1-(4-methoxy-6-(3,3,3-trifluoropropyl)pyridin-3-yl)-N-(((1r,4r)-4-(methylsulfonyl)cyclohexyl)methyl)-1H-imidazole-4-carboxamide] | 5000 |  | 3000 | 30 |  |

These reach a lower Kd [1]. Values come first.

| Kd [1] [nM] | inhibition at 3 µM ([2]; 3 μM compound concentration (*), read-out: RORγt (FL) Reporter Assay A or B, % inhibition) [%] | IC50 [2] [nM] | inhibition at 6 µM [2] [%] | inhibition at 2 µM [2, 3] [%] | SMILES |
| --- | --- | --- | --- | --- | --- |
| 15 |  | 87 | 95 |  | [2H]C([2H])([2H])Oc1cc(CCC(F)(F)F)ccc1-n1c(CC)nc(C(=O)NC[C@H]2CC[C@H](S(C)(=O)=O)CC2)c1C#N [Example 29, 5-Cyano-2-ethyl-1-(2-(methoxy-d3)-4-(3,3,3-trifluoropropyl)phenyl)-N-(((1r,4r)-4-(methylsulfonyl)cyclohexyl)methyl)-1H-imidazole-4-carboxamide] |
| 3.5 |  | 37 |  | 98 | CCc1nc(C(=O)NC[C@H]2CC[C@H](S(C)(=O)=O)CC2)c(F)n1-c1ccc(CC(C)(C)C(F)(F)F)cc1OC(F)F [Example 34, 1-(2-(Difluoromethoxy)-4-(3,3,3-trifluoro-2,2-dimethylpropyl)phenyl)-2-ethyl-5-fluoro-N-(((1r,4r)-4-(methylsulfonyl)cyclohexyl)methyl)-1H-imidazole-4-carboxamide] |
| 12 |  | 71 |  | 99 | [2H]C([2H])([2H])Oc1cc(CC(C)(C)C(F)(F)F)ccc1-n1c(CC)nc(C(=O)NC[C@]2(O)CC[C@@H](S(C)(=O)=O)CC2)c1F [Example 32, 2-Ethyl-5-fluoro-N-(((1s,4s)-1-hydroxy-4-(methylsulfonyl)cyclohexyl)methyl)-1-(2-(methoxy-d3)-4-(3,3,3-trifluoro-2,2-dimethylpropyl)phenyl)-1H-imidazole-4-carboxamide] |
| 2.6 |  | 35 | 101 |  | COc1cc(N[C@H](C)C(F)(F)F)ccc1-n1c(CC(C)C)nc(C(=O)NC[C@H]2CC[C@H](S(C)(=O)=O)CC2)c1Cl [Example 9, 5-Chloro-2-isobutyl-1-(2-methoxy-4-(((R)-1,1,1-trifluoropropan-2-yl)amino)phenyl)-N-(((1r,4R)-4-(methylsulfonyl)cyclohexyl)methyl)-1H-imidazole-4-carboxamide] |
| 3.9 |  | 55 | 103 |  | CCc1nc(C(=O)NC[C@H]2CC[C@H](S(C)(=O)=O)CC2)c(F)n1-c1ccc(CC(C)C(F)(F)F)cc1OC (stereo partly drawn) [Example 15, 2-Ethyl-5-fluoro-1-(2-methoxy-4-(3,3,3-trifluoro-2-methylpropyl)phenyl)-N-(((1r,4r)-4-(methylsulfonyl)cyclohexyl)methyl)-1H-imidazole-4-carboxamide] |
